Reference: PubChem BioAssay AID2060503 (Molecular Pharmacology Branch, DTP, NCI, 2025)

Tested on: 817829-284-R-J1-PDC complex spheroids, viability
Assay: Anticancer human tumor 817829-284-R-J1-PDC patient-derived colon adenocarcinoma cell line growth inhibition [GQUAD]
Settings: for IC50: curve of first compound; for viability, T/C: stronger effect = lower value
Procedure, shortened: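 Multi-cell-type spheroids of tumor cells with HUVEC and mesenchymal stem cells, treated with drug combinations. Concentrations descend in half-log steps from near clinical Cmax, or from 10 microM where Cmax is unknown; viability read-out.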

[1] = second compound 0.0316 µM, first compound 0.0316 µM
[2] = second compound 0.0316 µM, first compound 0.1 µM
[3] = second compound 0.0316 µM, first compound 0.316 µM
[4] = second compound 0.0316 µM, first compound 1 µM
[5] = second compound 0.0316 µM, first compound 3.16 µM
[6] = second compound 0.0316 µM, first compound 10 µM
[7] = second compound 0.1 µM, first compound 0.0316 µM
[8] = second compound 0.1 µM, first compound 0.1 µM
[9] = second compound 0.1 µM, first compound 0.316 µM
[10] = second compound 0.1 µM, first compound 1 µM
[11] = second compound 0.1 µM, first compound 3.16 µM
[12] = second compound 0.1 µM, first compound 10 µM
[13] = second compound 0.316 µM, first compound 0.0316 µM
[14] = second compound 0.316 µM, first compound 0.1 µM
[15] = second compound 0.316 µM, first compound 0.316 µM
[16] = second compound 0.316 µM, first compound 1 µM
[17] = second compound 0.316 µM, first compound 3.16 µM
[18] = second compound 0.316 µM, first compound 10 µM
[19] = second compound 1 µM, first compound 0.0316 µM
[20] = second compound 1 µM, first compound 0.1 µM
[21] = second compound 1 µM, first compound 0.316 µM
[22] = second compound 1 µM, first compound 1 µM
[23] = second compound 1 µM, first compound 3.16 µM
[24] = second compound 1 µM, first compound 10 µM
[25] = second compound 3.16 µM, first compound 0.0316 µM
[26] = second compound 3.16 µM, first compound 0.1 µM
[27] = second compound 3.16 µM, first compound 0.316 µM
[28] = second compound 3.16 µM, first compound 1 µM
[29] = second compound 3.16 µM, first compound 3.16 µM
[30] = second compound 3.16 µM, first compound 10 µM
[31] = second compound 10 µM, first compound 0.0316 µM
[32] = second compound 10 µM, first compound 0.1 µM
[33] = second compound 10 µM, first compound 0.316 µM
[34] = second compound 10 µM, first compound 1 µM
[35] = second compound 10 µM, first compound 3.16 µM
[36] = second compound 10 µM, first compound 10 µM
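Note: spheroids exposed to agents for 7 days before readout.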
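Throughout, for viability, T/C: percent viability relative to DMSO vehicle control taken as 100%.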

## COc1cc(C2c3cc4c(cc3C(OC3OC5COC(C)OC5C(O)C3O)C3COC(=O)C23)OCO4)cc(OC)c1O (stereo not drawn) + CN(C)c1ccc(Nc2c3ccc(NC(=O)CCN4CCCC4)cc3nc3cc(NC(=O)CCN4CCCC4)ccc23)cc1
Second compound 0.0316 µM
  IC50: 378 nM
Second compound 0.1 µM
  IC50: 434 nM
Second compound 0.316 µM
  IC50: 375 nM
Second compound 1 µM
  IC50: 229 nM
Second compound 3.16 µM
  IC50: 227 nM
Second compound 10 µM
  IC50: 295 nM
[1]
  viability, T/C: 103%
[2]
  viability, T/C: 85.7%
[3]
  viability, T/C: 35%
[4]
  viability, T/C: 42.8%
[5]
  viability, T/C: 32.1%
[6]
  viability, T/C: 10.2%
[7]
  viability, T/C: 97.5%
[8]
  viability, T/C: 88.6%
[9]
  viability, T/C: 34.5%
[10]
  viability, T/C: 44.9%
[11]
  viability, T/C: 33.9%
[12]
  viability, T/C: 11%
[13]
  viability, T/C: 92.7%
[14]
  viability, T/C: 81.6%
[15]
  viability, T/C: 37.7%
[16]
  viability, T/C: 40.4%
[17]
  viability, T/C: 33.3%
[18]
  viability, T/C: 11.8%
[19]
  viability, T/C: 101%
[20]
  viability, T/C: 92.1%
[21]
  viability, T/C: 33.1%
[22]
  viability, T/C: 40.7%
[23]
  viability, T/C: 32%
[24]
  viability, T/C: 9.94%
[25]
  viability, T/C: 95.4%
[26]
  viability, T/C: 87.9%
[27]
  viability, T/C: 34.3%
[28]
  viability, T/C: 37%
[29]
  viability, T/C: 30.7%
[30]
  viability, T/C: 10.4%
[31]
  viability, T/C: 86.9%
[32]
  viability, T/C: 68.2%
[33]
  viability, T/C: 37.1%
[34]
  viability, T/C: 41.5%
[35]
  viability, T/C: 27.3%
[36]
  viability, T/C: 10%

## COc1cccc2c1C(=O)c1c(O)c3c(c(O)c1C2=O)CC(O)(C(=O)CO)CC3OC1CC(N)C(O)C(C)O1 (stereo not drawn) + CN(C)c1ccc(Nc2c3ccc(NC(=O)CCN4CCCC4)cc3nc3cc(NC(=O)CCN4CCCC4)ccc23)cc1
Second compound 0.0316 µM
  IC50: 95.5 nM
Second compound 0.1 µM
  IC50: 94.5 nM
Second compound 0.316 µM
  IC50: 93.4 nM
Second compound 1 µM
  IC50: 96.4 nM
Second compound 3.16 µM
  IC50: 91 nM
Second compound 10 µM
  IC50: 95.7 nM
[1]
  viability, T/C: 80.9%
[2]
  viability, T/C: 39.6%
[3]
  viability, T/C: 41%
[4]
  viability, T/C: 10%
[5]
  viability, T/C: 0.59%
[6]
  viability, T/C: 0.64%
[7]
  viability, T/C: 79.7%
[8]
  viability, T/C: 43.4%
[9]
  viability, T/C: 35.5%
[10]
  viability, T/C: 10.1%
[11]
  viability, T/C: 0.47%
[12]
  viability, T/C: 0.28%
[13]
  viability, T/C: 82.7%
[14]
  viability, T/C: 37.8%
[15]
  viability, T/C: 40.4%
[16]
  viability, T/C: 9.85%
[17]
  viability, T/C: 0.54%
[18]
  viability, T/C: 0.34%
[19]
  viability, T/C: 83.1%
[20]
  viability, T/C: 38.4%
[21]
  viability, T/C: 40.9%
[22]
  viability, T/C: 10.8%
[23]
  viability, T/C: 0.57%
[24]
  viability, T/C: 0.34%
[25]
  viability, T/C: 91.9%
[26]
  viability, T/C: 37.6%
[27]
  viability, T/C: 33.8%
[28]
  viability, T/C: 9.5%
[29]
  viability, T/C: 0.71%
[30]
  viability, T/C: 0.36%
[31]
  viability, T/C: 85.8%
[32]
  viability, T/C: 39%
[33]
  viability, T/C: 37.6%
[34]
  viability, T/C: 12.3%
[35]
  viability, T/C: 1%
[36]
  viability, T/C: 0.33%

## Nc1ccn(C2OC(CO)C(O)C2(F)F)c(=O)n1 (stereo not drawn) + CN(C)c1ccc(Nc2c3ccc(NC(=O)CCN4CCCC4)cc3nc3cc(NC(=O)CCN4CCCC4)ccc23)cc1
Second compound 0.0316 µM
  IC50: < 31.6 nM
Second compound 0.1 µM
  IC50: < 31.6 nM
Second compound 0.316 µM
  IC50: < 31.6 nM
Second compound 1 µM
  IC50: < 31.6 nM
Second compound 3.16 µM
  IC50: < 31.6 nM
Second compound 10 µM
  IC50: < 31.6 nM
[1]
  viability, T/C: 11.1%
[2]
  viability, T/C: 6.76%
[3]
  viability, T/C: 7.53%
[4]
  viability, T/C: 6.63%
[5]
  viability, T/C: 5.22%
[6]
  viability, T/C: 3.38%
[7]
  viability, T/C: 11.5%
[8]
  viability, T/C: 7.05%
[9]
  viability, T/C: 7.75%
[10]
  viability, T/C: 7.5%
[11]
  viability, T/C: 5.74%
[12]
  viability, T/C: 4.58%
[13]
  viability, T/C: 10.2%
[14]
  viability, T/C: 7.22%
[15]
  viability, T/C: 7.51%
[16]
  viability, T/C: 6.86%
[17]
  viability, T/C: 5.17%
[18]
  viability, T/C: 3.32%
[19]
  viability, T/C: 10.5%
[20]
  viability, T/C: 5.85%
[21]
  viability, T/C: 7.62%
[22]
  viability, T/C: 8.41%
[23]
  viability, T/C: 6.53%
[24]
  viability, T/C: 3.73%
[25]
  viability, T/C: 8.54%
[26]
  viability, T/C: 7.05%
[27]
  viability, T/C: 8.46%
[28]
  viability, T/C: 8.5%
[29]
  viability, T/C: 6.92%
[30]
  viability, T/C: 3.39%
[31]
  viability, T/C: 10.7%
[32]
  viability, T/C: 9.04%
[33]
  viability, T/C: 8.83%
[34]
  viability, T/C: 8.64%
[35]
  viability, T/C: 6.59%
[36]
  viability, T/C: 4.48%

## O=c1[nH]cc(F)c(=O)[nH]1 + CN(C)c1ccc(Nc2c3ccc(NC(=O)CCN4CCCC4)cc3nc3cc(NC(=O)CCN4CCCC4)ccc23)cc1
Second compound 0.0316 µM
  IC50: 2120 nM
Second compound 0.1 µM
  IC50: 2450 nM
Second compound 0.316 µM
  IC50: 2400 nM
Second compound 1 µM
  IC50: 2700 nM
Second compound 3.16 µM
  IC50: 2510 nM
Second compound 10 µM
  IC50: 2690 nM
[1]
  viability, T/C: 112%
[2]
  viability, T/C: 104%
[3]
  viability, T/C: 119%
[4]
  viability, T/C: 73.4%
[5]
  viability, T/C: 44.2%
[6]
  viability, T/C: 30.7%
[7]
  viability, T/C: 101%
[8]
  viability, T/C: 102%
[9]
  viability, T/C: 94.3%
[10]
  viability, T/C: 84.3%
[11]
  viability, T/C: 39.9%
[12]
  viability, T/C: 29.3%
[13]
  viability, T/C: 102%
[14]
  viability, T/C: 106%
[15]
  viability, T/C: 97.1%
[16]
  viability, T/C: 78.7%
[17]
  viability, T/C: 40.7%
[18]
  viability, T/C: 29.6%
[19]
  viability, T/C: 99.5%
[20]
  viability, T/C: 101%
[21]
  viability, T/C: 108%
[22]
  viability, T/C: 83%
[23]
  viability, T/C: 45.7%
[24]
  viability, T/C: 31.6%
[25]
  viability, T/C: 91.2%
[26]
  viability, T/C: 96.7%
[27]
  viability, T/C: 102%
[28]
  viability, T/C: 74.1%
[29]
  viability, T/C: 45.4%
[30]
  viability, T/C: 29%
[31]
  viability, T/C: 102%
[32]
  viability, T/C: 95.9%
[33]
  viability, T/C: 100%
[34]
  viability, T/C: 80.5%
[35]
  viability, T/C: 45.3%
[36]
  viability, T/C: 31.9%
